According to the NIST ThermoML archive (doi:10.1016/j.jct.2008.01.023):

How the values were obtained:
[1] = refractive index (Na D-line) (dimensionless); conditions: 298.15 K; 101.33 kPa; Liquid; Standard Abbe refractometry
[2] = 298.15 K; 101.33 kPa; Liquid
[3] = refractive index (Na D-line) (dimensionless); xn = mol fraction of the nth substance listed; conditions: 298.15 K, 101 kPa, Liquid, Standard Abbe refractometry
[4] = xn = mol fraction of the nth substance listed; conditions: 298.15 K, 101 kPa, Liquid

OCCO [1,2-ethanediol]
Conditions | refractive index
[1] | 1.4304

ClCCCCl [1,3-dichloropropane]
Conditions | mass density [kg/m3] | refractive index
[1] | – | 1.446
[2] | 1179.1 | –

ClCCCCl [1,3-dichloropropane] + CCCCn1cc[n+](C)c1.COS(=O)(=O)[O-]
Conditions | mass density, [4] [kg/m3] | refractive index, [3]
x2 = 0.0429 | 1183.63 | 1.4499
x2 = 0.0674 | 1185.62 | 1.4518
x2 = 0.104 | 1188.24 | 1.4543
x2 = 0.1376 | 1190.37 | 1.4564
x2 = 0.1894 | 1193.17 | 1.4596
x2 = 0.2496 | 1195.76 | 1.4624
x2 = 0.3166 | 1198.02 | 1.4654
x2 = 0.3917 | 1200.02 | 1.4677
x2 = 0.4881 | 1201.98 | 1.4706
x2 = 0.5686 | 1203.19 | 1.4725
x2 = 0.6797 | 1204.61 | 1.4747
x2 = 0.7887 | 1205.73 | 1.4765
x2 = 0.8987 | 1206.82 | 1.4784

ClCCCCl [1,3-dichloropropane] + CCCCn1cc[n+](C)c1.F[B-](F)(F)F
Conditions | mass density, [4] [kg/m3] | refractive index, [3]
x2 = 0.0536 | 1184.13 | 1.4448
x2 = 0.1135 | 1187.8 | 1.443
x2 = 0.1516 | 1189.78 | 1.4418
x2 = 0.2101 | 1192.32 | 1.4401
x2 = 0.2817 | 1194.71 | 1.4381
x2 = 0.3528 | 1196.53 | 1.4359
x2 = 0.4042 | 1197.51 | 1.4345
x2 = 0.4626 | 1198.41 | 1.433
x2 = 0.5254 | 1199.14 | 1.4314
x2 = 0.5466 | 1199.38 | 1.4309
x2 = 0.5955 | 1199.76 | 1.4296
x2 = 0.6786 | 1200.34 | 1.4276
x2 = 0.7863 | 1200.89 | 1.4255
x2 = 0.9028 | 1201.2 | 1.4234

CCCCn1cc[n+](C)c1.COS(=O)(=O)[O-] [1-butyl-3-methylimidazolium methyl sulfate]
Conditions | mass density [kg/m3] | refractive index
[1] | – | 1.4794
[2] | 1207.75 | –

CCCCn1cc[n+](C)c1.COS(=O)(=O)[O-] [1-butyl-3-methylimidazolium methyl sulfate] + CCO
Conditions | mass density, [4] [kg/m3] | refractive index, [3]
x1 = 0.0459 | 850.62 | 1.3791
x1 = 0.0987 | 909.24 | 1.3956
x1 = 0.142 | 948.07 | 1.4067
x1 = 0.1905 | 984.34 | 1.417
x1 = 0.2357 | 1012.98 | 1.4253
x1 = 0.2733 | 1033.54 | 1.4314
x1 = 0.3516 | 1069.63 | 1.4414
x1 = 0.4381 | 1101.3 | 1.4503
x1 = 0.5335 | 1129.08 | 1.4581
x1 = 0.5712 | 1138.45 | 1.4609
x1 = 0.6742 | 1160.39 | 1.4667
x1 = 0.7665 | 1176.77 | 1.4715
x1 = 0.8482 | 1188.91 | 1.4745
x1 = 0.9248 | 1199.03 | 1.4772

CCCCn1cc[n+](C)c1.COS(=O)(=O)[O-] [1-butyl-3-methylimidazolium methyl sulfate] + C[N+](=O)[O-]
Conditions | mass density, [4] [kg/m3] | refractive index, [3]
x1 = 0.0398 | 1146.67 | 1.3953
x1 = 0.1021 | 1161.66 | 1.4128
x1 = 0.1433 | 1168.87 | 1.4218
x1 = 0.1988 | 1176.21 | 1.4316
x1 = 0.2444 | 1180.95 | 1.4382
x1 = 0.2998 | 1185.58 | 1.4449
x1 = 0.3979 | 1191.69 | 1.4541
x1 = 0.4786 | 1195.47 | 1.4596
x1 = 0.5652 | 1198.52 | 1.4648
x1 = 0.7127 | 1202.66 | 1.4714
x1 = 0.8212 | 1204.74 | 1.4748
x1 = 0.8546 | 1205.4 | 1.4758

CCCCn1cc[n+](C)c1.COS(=O)(=O)[O-] [1-butyl-3-methylimidazolium methyl sulfate] + OCCO
Conditions | mass density, [4] [kg/m3] | refractive index, [3]
x1 = 0.0341 | 1195.09 | 1.4334
x1 = 0.0854 | 1115.82 | 1.4373
x1 = 0.1079 | 1172.89 | 1.439
x1 = 0.1946 | 1123.61 | 1.4449
x1 = 0.2446 | 1170.78 | 1.4479
x1 = 0.2999 | 1126.01 | 1.4511
x1 = 0.353 | 1164.56 | 1.454
x1 = 0.4399 | 1138.05 | 1.4582
x1 = 0.5061 | 1150.15 | 1.4616
x1 = 0.5299 | 1188.48 | 1.4625
x1 = 0.636 | 1143.98 | 1.4672
x1 = 0.717 | 1155.76 | 1.4703
x1 = 0.8055 | 1182.08 | 1.4735
x1 = 0.907 | 1201.87 | 1.4768

CCCCn1cc[n+](C)c1.F[B-](F)(F)F [1-butyl-3-methylimidazolium tetrafluoroborate]
Conditions | mass density [kg/m3] | refractive index
[1] | – | 1.4219
[2] | 1201.41 | –

CCCCn1cc[n+](C)c1.F[B-](F)(F)F [1-butyl-3-methylimidazolium tetrafluoroborate] + CCO
Conditions | mass density, [4] [kg/m3] | refractive index, [3]
x1 = 0.0517 | 850.45 | 1.3703
x1 = 0.0918 | 891.63 | 1.3767
x1 = 0.1995 | 976.13 | 1.3898
x1 = 0.2495 | 1007.41 | 1.3943
x1 = 0.2518 | 1042.9 | 1.3946
x1 = 0.3228 | 1081.97 | 1.3998
x1 = 0.4219 | 1117.11 | 1.4058
x1 = 0.5356 | 1138.94 | 1.4105
x1 = 0.6244 | 1156.56 | 1.4137
x1 = 0.709 | 1177.74 | 1.4161
x1 = 0.8295 | 1192.74 | 1.4188

CCCCn1cc[n+](C)c1.F[B-](F)(F)F [1-butyl-3-methylimidazolium tetrafluoroborate] + OCCO
Conditions | mass density, [4] [kg/m3] | refractive index, [3]
x1 = 0.0517 | 1123.11 | 1.4287
x1 = 0.138 | 1138.78 | 1.4261
x1 = 0.1928 | 1146.51 | 1.425
x1 = 0.2567 | 1154.22 | 1.424
x1 = 0.3 | 1158.72 | 1.4235
x1 = 0.3324 | 1161.86 | 1.4231
x1 = 0.402 | 1167.89 | 1.4226
x1 = 0.4162 | 1168.98 | 1.4225
x1 = 0.4997 | 1175.1 | 1.4219
x1 = 0.5803 | 1180.22 | 1.4216
x1 = 0.632 | 1183.29 | 1.4215
x1 = 0.696 | 1186.82 | 1.4215
x1 = 0.8045 | 1192.48 | 1.4215
x1 = 0.9083 | 1197.33 | 1.4217

CCOCCOCCO [3,6-dioxa-1-octanol]
Conditions | mass density [kg/m3] | refractive index
[1] | – | 1.4253
[2] | 983.68 | –

CCOCCOCCO [3,6-dioxa-1-octanol] + CCCCn1cc[n+](C)c1.COS(=O)(=O)[O-]
Conditions | mass density, [4] [kg/m3] | refractive index, [3]
x2 = 0.0517 | 1003.36 | 1.4307
x2 = 0.0891 | 1016.08 | 1.4339
x2 = 0.1483 | 1035.02 | 1.4388
x2 = 0.2233 | 1057.1 | 1.4443
x2 = 0.2901 | 1074.98 | 1.4488
x2 = 0.3194 | 1082.5 | 1.4507
x2 = 0.3902 | 1099.82 | 1.4548
x2 = 0.4732 | 1118.6 | 1.4593
x2 = 0.5364 | 1131.83 | 1.4626
x2 = 0.6235 | 1148.55 | 1.4663
x2 = 0.696 | 1161.73 | 1.4697
x2 = 0.8065 | 1179.9 | 1.4735
x2 = 0.8947 | 1193.18 | 1.4763

CCOCCOCCO [3,6-dioxa-1-octanol] + CCCCn1cc[n+](C)c1.F[B-](F)(F)F
Conditions | mass density, [4] [kg/m3] | refractive index, [3]
x2 = 0.0544 | 1003.36 | 1.4268
x2 = 0.1016 | 1018.2 | 1.4274
x2 = 0.1492 | 1032.87 | 1.4277
x2 = 0.1941 | 1045.1 | 1.4278
x2 = 0.2686 | 1065.22 | 1.4278
x2 = 0.3215 | 1078.37 | 1.4277
x2 = 0.3932 | 1094.93 | 1.4273
x2 = 0.5108 | 1119.82 | 1.4265
x2 = 0.6016 | 1137.49 | 1.4257
x2 = 0.6657 | 1149.16 | 1.425
x2 = 0.6998 | 1155.07 | 1.4247
x2 = 0.8304 | 1176.5 | 1.4235
x2 = 0.9551 | 1195.04 | 1.4223

CCO [ethanol]
Conditions | mass density [kg/m3] | refractive index
[1] | – | 1.3593
[2] | 785.18 | –

C[N+](=O)[O-] [nitromethane]
Conditions | mass density [kg/m3] | refractive index
[1] | – | 1.3796
[2] | 1131.17 | –

C[N+](=O)[O-] [nitromethane] + CCCCn1cc[n+](C)c1.F[B-](F)(F)F
Conditions | mass density, [4] [kg/m3] | refractive index, [3]
x2 = 0.0512 | 1148.18 | 1.3889
x2 = 0.0991 | 1158.64 | 1.3952
x2 = 0.1392 | 1165.19 | 1.399
x2 = 0.2026 | 1173.12 | 1.4038
x2 = 0.2986 | 1181.43 | 1.4089
x2 = 0.3565 | 1185.14 | 1.4112
x2 = 0.3972 | 1187.27 | 1.4125
x2 = 0.4553 | 1189.89 | 1.4142
x2 = 0.5231 | 1192.3 | 1.4158
x2 = 0.5949 | 1194.48 | 1.4172
x2 = 0.6863 | 1196.69 | 1.4188
x2 = 0.8073 | 1198.86 | 1.4202
x2 = 0.8634 | 1199.69 | 1.4207
